The source of these data is the supplement of paper PMC10307832.

What all share (assay): relative viability (nuclei count vs DMSO), 5 days (fraction); higher = more cells survive
Compound in the assay “4EGI-1 + OSI-027”: O=C(O)C(Cc1ccccc1[N+](=O)[O-])=NNc1nc(-c2ccc(Cl)c(Cl)c2)cs1 (mixture of isomers) [4EGI-1] + COc1cccc2cc(-c3nc([C@H]4CC[C@H](C(=O)O)CC4)n4ncnc(N)c34)[nH]c12 [OSI-027] (partner 0.5 µM)
In short, it runs like this:
(§1)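 Relative viability equals treated-well nuclei counts divided by vehicle-well nuclei counts. Counts came from 4× images of lung cancer cell lines grown in 1536-well plates for 5 days after pin-tool dosing on the day after seeding. Dosing used one drug alone or a fixed anchor-drug dose plus five library-drug doses (not always all listed) in √10 steps, and values are medians of duplicate plates.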

Compound in the assay “XMD8-85 + Pemetrexed”: CN1CCN(CC1)C2=CC(=C(C=C2)NC3=NC=C4C(=N3)N(C5=CC=CC=C5C(=O)N4C)C)OC [XMD8-85] + Nc1nc2[nH]cc(CCc3ccc(C(=O)N[C@@H](CCC(=O)O)C(=O)O)cc3)c2c(=O)[nH]1 [Pemetrexed] (partner 0.2 µM)
In short, it runs like this:
as §1

Compound in the assay “XMD8-85 + Crizotinib”: CN1CCN(CC1)C2=CC(=C(C=C2)NC3=NC=C4C(=N3)N(C5=CC=CC=C5C(=O)N4C)C)OC [XMD8-85] + C[C@@H](Oc1cc(-c2cnn(C3CCNCC3)c2)cnc1N)c1c(Cl)ccc(F)c1Cl [Crizotinib] (partner 1 µM)
A digest of the protocol: as §1

Compound in the assay “4EGI-1 + Pictilisib”: O=C(O)C(Cc1ccccc1[N+](=O)[O-])=NNc1nc(-c2ccc(Cl)c(Cl)c2)cs1 (mixture of isomers) [4EGI-1] + CS(=O)(=O)N1CCN(Cc2cc3nc(-c4cccc5[nH]ncc45)nc(N4CCOCC4)c3s2)CC1 [Pictilisib] (partner 1 µM)
In short, it runs like this: as §1

As to NCI-H1792, the relative viability with 4EGI-1 + OSI-027 (first compound 0.5 µM) is 0.886; with 4EGI-1 + OSI-027 (first compound 1.581 µM) it was 0.75; with 4EGI-1 + OSI-027 (first compound 5 µM), 0.62; with 4EGI-1 + OSI-027 (first compound 15.81 µM), 0.579; in the assay with 4EGI-1 + OSI-027 (first compound 50 µM) it was 0.503; with XMD8-85 + Pemetrexed (first compound 0.253 µM) it was 0.439. Further, the relative viability was determined as 0.889 with XMD8-85 + Pemetrexed (first compound 0.8 µM); 0.924 in the assay with XMD8-85 + Pemetrexed (first compound 2.53 µM); 0.818 with XMD8-85 + Pemetrexed (first compound 8 µM); 0.883 with XMD8-85 + Crizotinib (first compound 0.08 µM); 0.822 with XMD8-85 + Crizotinib (first compound 0.253 µM); 0.852 with XMD8-85 + Crizotinib (first compound 2.53 µM). The relative viability with XMD8-85 + Crizotinib (first compound 8 µM) is 0.905; with 4EGI-1 + Pictilisib (first compound 0.5 µM) it was 0.321; in the assay with 4EGI-1 + Pictilisib (first compound 1.581 µM) it was 0.209; with 4EGI-1 + Pictilisib (first compound 5 µM), 0.257; in the assay with 4EGI-1 + Pictilisib (first compound 15.81 µM) it was 0.214; with 4EGI-1 + Pictilisib (first compound 50 µM), 0.145.
